Results reported in US9173871B2, “Oxazole and thiazole compounds as beta-catenin modulators and uses thereof” (New York University, priority 2008, dated 2015).

Assays:
[1] = test system: Wnt/β-catenin STF-LUC reporter in LNCaP-abl cells; assay: β-catenin/Wnt-responsive STF16-LUC reporter with S37A β-catenin in LNCaP-abl cells; type: cell-based
Description: (§1) LNCaP or LNCaP-abl (ABL) cells were cotransfected with 0.1 μg β-galactosidase and 0.2 μg S37A stabilized β-catenin together with the indicated luciferase reporter constructs; STF16-LUC (β-catenin reporter) and LB1-LUC (AR reporter). […] Luciferase activity was normalized to β-galactosidase expression.
(§2) To determine the IC50 for the β-catenin/Wnt-responsive reporter, cells were cotransfected with β-galactosidase (LacZ) and a constitutively active S37A stabilized β-catenin mutant construct together with the reporter construct, STF16-LUC. To determine the IC50 for the AR-responsive construct, cells were cotransfected with LacZ and the AR responsive reporter construct, ARE-LUC. […] B) AR overexpression circumvents C3 repression of AR-responsive transcription. LNCaP cells were cotransfected with 0.1 μg LacZ and 0.2 μg of the AR responsive reporter construct, ARE-LUC, together with 0, 0.05, 0.1 and 0.2 μg of an AR expression vector. […] Luciferase activity was normalized to LacZ expression.
(§3) 108(15): 5954-63], it had not been determined in prostate cancer cells. […] 69(8): 3332-8].

[2] = test system: ARE-LUC androgen responsive reporter gene in LNCaP-abl; assay: AR responsive luciferase reporter (ARE-LUC / LB1-LUC) in LNCaP-abl cells; type: cell-based
Description: as §1, §2, §3

LNCaP-abl cells = assay: PARP cleavage immunoblot as marker of apoptosis, LNCaP-abl; type: cell-based; details: 20 μM, 72 hr
HEK 293 cells [3] = assay: Neutral red uptake growth assay, HEK293; type: cell-based; details: HEK 293, higher levels of C3 (10 or 20 μM daily)
Description: Left panel; HEK293 cells were cultured in DMEM with 10% FBS. […] Neutral red uptake assay was performed at the end of treatment to estimate the number of viable cells.

HEK 293 cells [4] = assay: PARP cleavage immunoblot, HEK293; type: cell-based; details: HEK 293, 20 μM, 72 hr
[5] = test system: AR and β-catenin target genes in LNCaP-abl cells; assay: Q-PCR time course of AR and β-catenin target genes in LNCaP-abl cells; type: cell-based; details: single dose at time 0, persists for 48 hours, FIG. 16A
Description: ABL cells were treated similarly, but cultured in 5% charcoal-stripped phenol-red free RPMI. The mRNA was extracted at each time point and relative levels of indicated genes were analyzed by Q-PCR and normalized to RPL19. B) Protein from LNCaP cells was analyzed at each time point and immunoblotted with indicated antibodies.
Expression of tubulin (included as an internal loading control) and β-catenin were unaffected.

LNCaP-abl tumors = assay: LNCaP-abl xenograft model of castration-resistant prostate cancer in nude mice; type: in vivo; details: 100 mg/kg daily, intraperitoneal then intratumor injection, FIG. 23
Description: Tumor volumes were measured twice weekly.
The cell types for xenograft studies include LNCaP, LNCaP-abl and VCaP, which have all been previously utilized for xenograft studies and are able to recur following castration [Korenchuk et al., In Vivo, 2001. 15(2): 163-8; Culig et al., Br J Cancer, 1999. 81(2): 242-51; Graff et al., J Biol Chem, 2000. 275(32): 24500-5]. VCaP cells harbor a wild type androgen receptor and are androgen-dependent for growth [van Bokhoven et al., Prostate, 2003. 57(3): 205-25]. Other characteristics of cells to be considered in such experiments include the mutational status of AR, pTEN, p53, ETS fusion, and the year derived. Following determination of the MTD, 5×10^6 cells are mixed with an equal volume of Matrigel (BD Biosciences) and injected subcutaneously into the right and left flank of a BALB/c nu/nu outbred mouse. […] To assay growth, tumors are measured with Vernier calipers, and the total volume determined by using the formula 0.52×width×height×depth. Tumor growth is measured twice weekly and animals are also weighed twice weekly to assess toxicity.
Methods: Rapidly cycling LNCaP-abl cells (15×10^6) were mixed with an equal volume of Matrigel and injected subcutaneously into the flank region of nude male mice. […] To assess growth, tumors were measured twice weekly with Vernier calipers, and the total volume was determined.

[6] = biological target: Wnt/wg pathway, Wnt-responsive luciferase reporter dTF12; details: Gonsalves et al., PNAS 2011; read-out: IC50, β-catenin-responsive luciferase reporter (dTF12); cited from earlier work

CCc1ccc(-c2nc(CSCC(=O)NCCc3ccccc3)c(C)o2)cc1 [Compound C3]
IC50 [1]: 890 nM
Wnt reporter gene activity (STF16-LUC) ([1]; 20 uM, 24 hr): inhibits
IC50 ([2]; LNCaP-abl (second of two values)): 1610 nM
AR reporter gene activity (LB1-LUC) ([2]; LNCaP-abl, 20 uM, 24 hr): inhibits
PARP cleavage (apoptosis marker) (LNCaP-abl cells): Increased levels of PARP cleavage
293 cell growth (HEK 293 cells [3]): somewhat slow
apoptosis (PARP cleavage) in 293 cells (HEK 293 cells [4]): does not induce apoptosis
AR, CDK1, UBE2C and c-myc mRNA [5]: diminished
tumor volume (LNCaP-abl tumors): reduced tumor volume to a statistically significant degree
IC50 [6]: 8.2 nM
